Experimental data: patent US12358918B2, “Aryl hydrocarbon receptor (AHR) activator compounds as cancer therapeutics” (THE BROAD INSTITUTE, INC., priority 2018, dated 2025)

Test system: ZR75, MDA-MB-468 and HCC1395 cell lines
Assay: cytotoxicity of CGS-15943 analogs in sensitive and resistant cell lines
Type: cell-based
Settings: IC50 tables of FIGS. 8A to 8D
Source text: Biological replicates were averaged and normalized to vehicle control. Dose curves were generated using Graphpad Prism.

SMILES: Nc1nc2c(cnn2CCc2ccccc2)c2nc(-c3ccco3)nn12 [BRD-K81225797-001-02-3]
- killing of sensitive (ZR75, MDA-MB-468) versus resistant (HCC1395) cell lines: selective killing
